Target: T1, eNOS (Rattus norvegicus, UniProt Q62600)
T1 construct: endogenous in cells; host or cells: primary liver sinusoidal endothelial cells from male Sprague-Dawley rats (normal or bile-duct-ligated)
T1 sequence (Q62600 1-1202): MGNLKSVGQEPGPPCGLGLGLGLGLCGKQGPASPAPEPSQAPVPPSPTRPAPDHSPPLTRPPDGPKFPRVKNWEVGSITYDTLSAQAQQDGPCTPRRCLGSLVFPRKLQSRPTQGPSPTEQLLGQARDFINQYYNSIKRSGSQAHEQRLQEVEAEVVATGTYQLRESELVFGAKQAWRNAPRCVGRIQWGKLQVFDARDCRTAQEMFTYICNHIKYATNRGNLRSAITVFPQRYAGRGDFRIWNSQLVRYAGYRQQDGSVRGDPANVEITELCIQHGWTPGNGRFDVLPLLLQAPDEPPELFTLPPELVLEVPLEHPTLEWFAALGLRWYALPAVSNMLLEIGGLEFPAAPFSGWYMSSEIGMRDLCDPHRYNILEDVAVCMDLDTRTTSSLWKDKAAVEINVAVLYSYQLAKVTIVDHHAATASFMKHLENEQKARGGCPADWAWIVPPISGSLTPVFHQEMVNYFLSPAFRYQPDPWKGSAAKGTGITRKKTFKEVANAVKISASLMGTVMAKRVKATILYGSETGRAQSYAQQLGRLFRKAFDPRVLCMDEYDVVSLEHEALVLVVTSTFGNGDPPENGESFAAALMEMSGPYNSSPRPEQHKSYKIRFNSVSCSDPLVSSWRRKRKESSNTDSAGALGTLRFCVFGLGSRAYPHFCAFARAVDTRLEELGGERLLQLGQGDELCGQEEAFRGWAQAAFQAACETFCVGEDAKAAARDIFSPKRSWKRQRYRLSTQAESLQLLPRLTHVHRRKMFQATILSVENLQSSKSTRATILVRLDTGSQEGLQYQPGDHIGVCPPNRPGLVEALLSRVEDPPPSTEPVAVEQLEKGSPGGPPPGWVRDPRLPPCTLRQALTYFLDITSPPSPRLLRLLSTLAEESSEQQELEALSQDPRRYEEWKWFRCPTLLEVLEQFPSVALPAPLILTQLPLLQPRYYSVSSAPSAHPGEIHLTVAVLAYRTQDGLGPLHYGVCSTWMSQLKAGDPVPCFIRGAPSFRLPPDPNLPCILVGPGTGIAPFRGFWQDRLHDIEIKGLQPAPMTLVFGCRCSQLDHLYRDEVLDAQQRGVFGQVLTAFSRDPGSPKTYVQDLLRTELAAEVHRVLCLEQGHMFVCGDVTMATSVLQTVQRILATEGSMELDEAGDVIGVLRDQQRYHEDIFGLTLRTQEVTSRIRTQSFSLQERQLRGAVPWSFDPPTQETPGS
Experiment: NOS activity assay (conversion of L-[3H]arginine to L-[3H]citrulline) in sinusoidal endothelial cell lysates
Assay type: cell-based
Method: Cell isolation and culture. Sinusoidal endothelial cells were isolated from male Sprague-Dawley rats (450-500 g) (Harlan, Indianapolis, Ind.). In brief, after in situ perfusion of the liver with 20 mg/100 mg pronase (Roche Molecular Biochemicals, Indianapolis, Ind.), followed by collagenase (Worthington Biochemical, Lakewood, N.J.), dispersed cell suspensions were removed from a layered discontinuous density gradient of 8.2 and 15.6% Accudenz (Accurate Chemical and Scientific, Westbury, N.Y.), further purified by centrifugal elutriation (18 ml/min flow), and were grown in medium containing 20% serum (10% horse/calf). The purity of endothelial cells was documented by their uptake of fluorescently labeled di-l-acetoacetylated low-density lipoprotein as described (21). Only primary sinusoidal endothelial isolates of >95% purity were used for study. Experiments were performed with cells frorrr a minimum three different isolations (for all experiments).
Animal model of liver injury and portal hypedension. Liver injury and portal hypertension were induced by performing bile duct ligation in 450- to 500-gram male retired breeder Sprague-Dawley rats as described in Liu and 20- to 25-gram male BALB/c mice. Briefly, bile duct ligation was performed by surgical isolation and ligation of the common bile duct. This model creates a portal-based fibrogenic response and portal hypertension 10-14 days after surgery (Liu). For study of injured sinusoidal endothelial cells, we used the rat model of bile duct ligation (10-14 days postsurgery); for in vivo study (primarily to conserve the use of active compound), we used the mouse model of bile duct ligation (examining portal pressure 4 wk postsurgery). In sham-operated rats or mice, laparotomy without isolation and section of the bile duct was performed. Studies were approved by the local Institutional Animal Care and Use Committees. Portal pressure measurement. Portal hypertension was induced in male BALB/c mice by bile duct ligation as above. Cicletanine (5 mg·kg^−1·day^−1) or vehicle was given by gavage as a single daily dose for 10 days before portal pressure measurement as described in Liue. In brief, mice were anesthetized, and an intravenous catheter (Becton Dickinson Vascular Access, Sandy, Utah) was introduced in the portal vein and secured with a silk tie. A calibrated low-pressure transducer (Digi-Med, Louisville, Ky.) was connected to the portal vein catheter, and portal pressure was recorded continuously using the Digi-Med Integrator 200 System (Digi-bled).
NOS activity assay. NOS activity from sinusoidal endothelial cell lysates was assessed by measuring the conversion of L-[3H]arginine to L-[3H]citrulline as described (6) per the manufacturer's instructions (Cayman Chemical). In brief, triplicate samples of cell lysates were incubated with a reaction buffer containing 3 pmol of L-[3H]arginine (45 Ci/mmol), 0-50 μM arginine, 1 mM NADPH, 100 nM calmodulin (CaM), 2 mM CaCl2, and 30 μM BH4 in a volume of 50-100 μl at room temperature for 30 min and at 37° C. for an additional 30 min in the presence and absence of 1 mM NG-nitro-L-arginine methyl ester (L-NAME). […] Radiolabeled counts per minute of generated L-citrulline were measured and used to determine L-NAME-inhibitable NOS activity (thus, each experiment included total counts and background counts). […] The reductase activities of sinusoidal endothelial cells with or without cicletanine exposure were determined using the NADPH-dependent cytochrome c assay. […]

increase in eNOS activity, 6 h compared with 2 h (cicletanine 100 nM): greater at 6 h
eNOS activity above basal level at 2 and 6 h after exposure (cicletanine 100 nM, cell lysates at 2 and 6 h): consistent increases
eNOS activity (conversion of arginine to citrulline) (cicletanine 100 nM, normal sinusoidal endothelial cells): robust eNOS activity
SMILES: Cc1ncc2c(c1O)COC2c1ccc(Cl)cc1 (stereo not shown) [cicletanine, 3-(4-chlorophenyl)-1,3-dihydro-7-hydroxy-6-methylfuro-(3,4-c) pyridine]
eNOS activity (sinusoidal endothelial cells injured by bile duct ligation, 2 h): increase

Source: patent US20170056380A1, “Systems, Methods, Techniques, and Compounds in Research and Treatment of Portal Hypertension and other Conditions” (priority 2014, published 2017)
